Measurements reported in US20080026996A1, “Selective Vpac2 Receptor Reptide Agonists” (ELI LILLY AND COMPANY, priority 2004, published 2008).
Where no end group is shown, it is not given here. The star is where a group is joined. Hexanoyl = CCCCCC(=O)*

How the values were obtained:
rat PAC1 receptor [1] = target: T1, rat PAC1 receptor (Rattus norvegicus, UniProt P32215); assay: Binding on recombinant rat PAC1 receptor expressed in CHO cells; settings: maximal concentration tested 10 μM peptide
T1 construct: expressed in transfected cells; host or cells: CHO cells, crude membranes
T1 sequence (P32215 20-523): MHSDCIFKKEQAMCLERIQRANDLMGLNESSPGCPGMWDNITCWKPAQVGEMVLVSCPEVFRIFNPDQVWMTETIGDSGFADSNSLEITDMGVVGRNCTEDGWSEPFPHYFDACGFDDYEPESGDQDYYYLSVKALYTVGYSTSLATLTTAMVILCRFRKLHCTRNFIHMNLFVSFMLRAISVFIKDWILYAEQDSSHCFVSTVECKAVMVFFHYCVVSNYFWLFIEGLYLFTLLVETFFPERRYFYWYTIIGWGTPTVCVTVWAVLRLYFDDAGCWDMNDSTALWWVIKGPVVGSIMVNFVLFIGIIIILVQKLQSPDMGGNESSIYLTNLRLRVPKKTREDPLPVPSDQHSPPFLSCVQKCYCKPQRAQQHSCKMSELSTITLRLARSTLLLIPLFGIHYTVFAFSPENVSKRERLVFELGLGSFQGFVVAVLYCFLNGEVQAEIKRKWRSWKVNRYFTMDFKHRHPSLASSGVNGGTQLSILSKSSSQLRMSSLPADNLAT
Method: All studies are performed on crude membranes prepared from three different cell cultures expressing the different recombinant receptors, using methodology that is known in the literature. Duplicate values are obtained for each assay.

rat PAC1 receptor [2] = target: T1, rat PAC1 receptor; assay: Adenylate cyclase assay on recombinant rat PAC1 receptor expressed in CHO cells; assay type: biochemical
[3] = Pharmacokinetic assay: active peptide levels in rat plasma after IV injection
Method: An IVGTT with glucose is given immediately after T=0 to 6 animals per condition. Samples are taken at 0, 2, 4, 6, and 10 minutes after injection.
For cell handling, Plate 50,000 cells/well and keep in culture over night. Wash cell twice in PBS and add 50 μl/well stimulation medium consisting of PBS+1.2 MgCl2, 1.3 CaCl2, 2 glucose and 0.5 IBMX. Incubate 15 minutes and add 50 μl/well of the plasma samples (see layout below). Incubate 30 minutes, remove the supernatant and proceed as normal with the DiscoveRx assay. Prepare plates in duplicate. Protease and peptidase inhibitor are present in all plasma samples.

human VPAC2 = target: T2, human VPAC2 (Homo sapiens, UniProt P41587); assay: DiscoveRx cAMP in vitro potency, CHO-S cell line stably expressing human VPAC2 receptor; assay type: cell-based; settings: cAMP generation; mean of two independent runs
T2 construct: expressed in transfected cells
T2 sequence (P41587 24-438): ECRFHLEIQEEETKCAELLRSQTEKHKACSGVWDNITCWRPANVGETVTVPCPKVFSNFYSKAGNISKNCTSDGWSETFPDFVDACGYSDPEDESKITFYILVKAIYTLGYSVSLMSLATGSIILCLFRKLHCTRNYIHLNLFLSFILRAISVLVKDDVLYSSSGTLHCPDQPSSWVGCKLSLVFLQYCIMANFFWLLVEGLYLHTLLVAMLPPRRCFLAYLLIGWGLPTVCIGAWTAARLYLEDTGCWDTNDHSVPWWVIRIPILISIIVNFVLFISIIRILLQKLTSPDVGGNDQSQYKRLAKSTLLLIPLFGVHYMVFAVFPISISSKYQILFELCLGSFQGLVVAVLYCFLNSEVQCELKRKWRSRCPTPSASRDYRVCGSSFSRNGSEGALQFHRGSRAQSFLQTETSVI
Method: Also, the cells are washed twice. The cells are incubated in assay buffer plus IBMX for 15 minutes at room temperature. […] The stimuli are present for 30 minutes. Then, the assay buffer is gently removed. […] At day 3, the assay described above for the VPAC2 receptor cell line is performed.

Normal Wistar rats = assay: Delayed IVGTT; assay type: in vivo, rat; settings: 10 μg/kg iv, glucose 30 minutes later
Method: Delayed IVGTT: Perform IVGTT as described above, making the following changes. After the initial blood sample, compound or vehicle is injected i.v. Glucose is injected i.v. 30 minutes later in a separate injection. Blood samples are taken immediately prior to administration of the compound, at 15 minutes after administration of the compound, and at 30 minutes after administration of the compound. The sample at 30 minutes after administration of the compound is taken immediately prior to glucose administration. Blood samples are drawn 2, 4, 6, 10, and 30 minutes after giving glucose (i.e. 32, 34, 36, 40 and 60 minutes after compound administration). The blood samples at 15 and 60 minutes are not essential to the study and not always taken. Aprotinin is added to the blood sample (250 kIU/ml blood). The serum is then analyzed for glucose and insulin using standard methodologies.
The assay uses a formulated and calibrated peptide stock in PBS. Normally, this stock is a prediluted 100 μM stock. However, a more concentrated stock with approximately 1 mg agonist per mL is used. The specific concentration is always known.

conscious Wistar rats = assay: Oral glucose tolerance test (OGTT); assay type: in vivo, rat; settings: for Effects on glucose, AUC(0-135 min) / Effects on insulin, AUC(0-75 min): OGTT (15 min)
Method: Oral Glucose Tolerance Test (OGTT):
The effect of a selective VPAC2 receptor peptide agonist (P31) on plasma insulin and glucose is evaluated during OGTT in conscious Wistar rats. The maximal dose of agonist is 10 μg/kg. Since the peptide is given intravenously and has a very short half-life, a delay between glucose and compound administrations is applied.

rat VPAC1 receptor = target: T3, rat VPAC1 receptor (Rattus norvegicus, UniProt P30083); assay: DiscoveRx in vitro potency, CHO-PO cells transiently transfected with rat VPAC 1 receptor DNA; assay type: cell-based; parameters: expressed in transfected cells; host or cells: CHO-PO, transient
T3 sequence (P30083 31-459): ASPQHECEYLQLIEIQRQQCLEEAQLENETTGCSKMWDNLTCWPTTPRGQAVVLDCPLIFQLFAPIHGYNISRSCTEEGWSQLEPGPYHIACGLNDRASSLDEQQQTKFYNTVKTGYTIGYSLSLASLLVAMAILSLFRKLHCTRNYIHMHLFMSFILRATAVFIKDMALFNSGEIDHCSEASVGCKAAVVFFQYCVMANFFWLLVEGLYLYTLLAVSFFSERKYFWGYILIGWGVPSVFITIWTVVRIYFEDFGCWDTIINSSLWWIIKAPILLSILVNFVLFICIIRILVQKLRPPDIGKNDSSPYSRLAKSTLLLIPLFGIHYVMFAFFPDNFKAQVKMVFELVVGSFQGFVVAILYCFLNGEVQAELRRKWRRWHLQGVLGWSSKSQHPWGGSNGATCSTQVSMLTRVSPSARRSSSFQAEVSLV
Method: Also, the cells are washed twice. […] The stimuli are present for 30 minutes. Then, the assay buffer is gently removed.

[4] = Wistar, rat, plasma, iv, 10 ug/kg

Row | Substance | binding (tracer displacement) (rat PAC1 receptor [1]) | potency ratio compared to PACAP-27 (rat PAC1 receptor [2]) | AUC(0-t) [3, 4] [nM·h] | Cmax [3, 4] [nM] | half-life [3, 4] [min] | Exposure (10 μg/kg); clearance in μg/(min * nM * kg) ([3]; rat plasma, 10 μg/kg i.v.) [µg/min/nM/kg] | Exposure (10 μg/kg, Vdist in μg/(nM * kg)) ([3]; rat plasma, 10 μg/kg i.v.) [µg/nM/kg] | EC50 (human VPAC2) [nM] | Effects on glucose (Normal Wistar rats) | Effects on insulin, AUC(0-10 min) (Normal Wistar rats) | Effects on glucose, AUC(0-135 min) (conscious Wistar rats; #1, 10 μg/kg iv) | Effects on insulin, AUC(0-75 min) (conscious Wistar rats; #1, 10 μg/kg iv) | Effects on glucose, AUC(0-135 min) (conscious Wistar rats; #2, 0.5 μg/kg iv) | Effects on insulin, AUC(0-75 min) (conscious Wistar rats; #2, 0.5 μg/kg iv) | Effects on glucose, AUC(0-135 min) (conscious Wistar rats; #2, 10 μg/kg iv) | Effects on insulin, AUC(0-75 min) (conscious Wistar rats; #2, 10 μg/kg iv) | Effects on insulin, AUC(0-90 min) (conscious Wistar rats; OGTT (30 min), 10 μg/kg iv) | Effects on glucose, AUC(0-150 min) (conscious Wistar rats; OGTT (30 min), 10 μg/kg iv, (NS)) | EC50 (rat VPAC1 receptor) [nM]
1 | H-MHSDAVFTDNYTRLRKQVAAKKYLQSIKNKRYGGPSSGAPPPS [Agonist P104] | incomplete tracer displacement | > 1000 | 0.355 | 3.19 | 2.35 | 0.87 | 2.64 | – | – | – | – | – | – | – | – | – | – | – | –
2 | Hexanoyl-HSDAVFTDNYTRLRKQVAAKKYLQSIKNKRYGGPSSGAPPPS [Agonist P31] | incomplete tracer displacement | – | – | – | – | – | – | 0.11 | None | +91% AUC(0-10 min) | −22% AUC(0-135 min) | +71% AUC(0-75 min) | −5% AUC(0-135 min) | +16% AUC(0-75 min) | −2% AUC(0-135 min) | +17% AUC(0-75 min) | +85% AUC(0-90 min) | −1% AUC(0-150 min) | 0.44
3 | Hexanoyl-HSDAVFTDNYTRLLAKLALQKYLQSIKNKRYGGPSSGAPPPS [Agonist P119] | incomplete tracer displacement | – | – | – | – | – | – | 0.34 | – | – | – | – | – | – | – | – | – | – | 0.07
